# Where “and” joins values, the source holds several entries; their conditions need not be identical. Equal values may be shown once. Read-outs that look alike come from different tables or passages of the source.
# Tests used:
# Assay type in all cases: cell-based, Escherichia coli
# [1] = system: EKO-35 (empty pCA24N); assay: microbe, parasite or virus in culture; conditions: Escherichia coli
# [2] = system: ΔtolC (empty pCA24N); assay: microbe, parasite or virus in culture; conditions: Escherichia coli, ΔtolC empty pCA24N, 0.1 mM IPTG
# [3] = system: EKO-35 wcaC (pCA24N); assay: MIC of strains harboring ASKA plasmids; conditions: EKO-35 wcaC, 0.1 mM IPTG
# [4] = system: ΔtolC-Pore; conditions: ΔtolC Pore; for PABN MICa Alone: PAβN alone, one value per checkerboard
# Outline: (§1)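 Read-out was OD600, the MIC being the lowest concentration without growth in a CLSI checkerboard run in MHB II. Each drug's MIC in combination was divided by its MIC alone and the two ratios summed as FICI. Cut-offs: <0.5 synergy, >0.5–1.0 additive, >1.0–2.0 indifferent, >2.0 antagonism.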
# [5] = system: EKO-35 strains producing different efflux pumps (EKO-35 araC::X); assay: Checkerboard synergy (FICI) of PAβN or NMP with antibiotics; conditions: for PABN MICa Alone: PAβN alone, one value per checkerboard
# Outline: as §1
# [6] = system: EKO-35 porinated strain expressing acrB; assay: Checkerboard synergy (FICI), porinated strain; conditions: EKO-35 acrB Pore
# Outline: as §1
# [7] = system: EKO-35-Pore; assay: Checkerboard synergy (FICI), porinated strain; conditions: EKO-35 Pore
# Outline: as §1
# [8] = system: wild-type K-12-Pore; assay: Checkerboard synergy (FICI), porinated strain; conditions: K-12 Pore
# Outline: as §1
# [9] = system: EKO-35-Pore acrBD408A (functionally inactive AcrB variant); assay: Checkerboard synergy (FICI), porinated strain; conditions: EKO-35 acrBD408A Pore
# Outline: as §1
molecule,measurement,setting,value
COc1cc(Cc2cnc(N)nc2N)cc(OC)c1OC [trimethoprim],MIC,[1],0.391 µg/mL
same,MIC,[2]; Chlor +,1.56 µg/mL
same,MIC,[2]; Chlor −,0.195 µg/mL
same,MIC,[3]; Chlor + (4 μg/mL),0.781 µg/mL
same,MIC,"[3]; Escherichia coli, Chlor −, read-out: MIC",0.781 µg/mL
phenylalanine-arginine-β-naphthylamide [PAβN],PABN MICa Alone,[4],64 µg/mL
same,PABN MICa Alone,[4]; listed as PABN,128 µg/mL
same,PABN MICa Combined,[4]; with Ciprofloxacin,64 µg/mL
same,PABN MICa Combined,[4]; with Erythromycin,16 µg/mL
same,PABN MICa Combined,[4]; with Fusidic Acid,32 µg/mL
same,PABN MICa Combined,[4]; with Linezolid,64 µg/mL
same,PABN MICa Combined,[4]; with Novobiocin,32 µg/mL
same,PABN MICa Combined,[4]; with Oxacillin,64 µg/mL
same,PABN MICa Combined,"[5]; EKO35 araC::acrB, with Linezolid",16 µg/mL
same,PABN MICa Combined,"[5]; EKO-35 acrB, with Erythromycin",16 µg/mL
same,PABN MICa Combined,"[5]; EKO-35 acrB, with Fusidic Acid",32 µg/mL
same,PABN MICa Combined,"[5]; EKO-35 acrB, with Novobiocin",32 µg/mL
same,PABN MICa Combined,"[5]; EKO-35 acrB, with Oxacillin",16 µg/mL
same,PABN MICa Alone,[5]; EKO-35 acrD,64 µg/mL
same,PABN MICa Alone,"[5]; EKO-35 acrD, listed as PABN",128 µg/mL
same,PABN MICa Combined,"[5]; EKO-35 acrD, with Fusidic Acid",8 µg/mL
same,PABN MICa Combined,"[5]; EKO-35 acrD, with Novobiocin",16 µg/mL
same,PABN MICa Combined,"[5]; EKO-35 acrD, with Oxacillin",4 µg/mL
same,PABN MICa Alone,"[5]; EKO-35 acrEF, listed as PABN",32 µg/mL and 64 µg/mL
same,PABN MICa Combined,"[5]; EKO-35 acrEF, with Ciprofloxacin",16 µg/mL
same,PABN MICa Combined,"[5]; EKO-35 acrEF, with Erythromycin",16 µg/mL
same,PABN MICa Combined,"[5]; EKO-35 acrEF, with Fusidic Acid",8 µg/mL
same,PABN MICa Combined,"[5]; EKO-35 acrEF, with Oxacillin",16 µg/mL
same,PABN MICa Alone,[5]; EKO-35 mdtEF,64 µg/mL
same,PABN MICa Combined,"[5]; EKO-35 mdtEF, with Erythromycin",16 µg/mL
same,PABN MICa Combined,"[5]; EKO-35 mdtEF, with Fusidic Acid",8 µg/mL
same,PABN MICa Alone,[5]; EKO-35 mexCD,64 µg/mL
same,PABN MICa Combined,"[5]; EKO-35 mexCD, with Ciprofloxacin",8 µg/mL
same,PABN MICa Combined,"[5]; EKO-35 mexCD, with Erythromycin",8 µg/mL
same,PABN MICa Combined,[6]; with Erythromycin,16 µg/mL
same,PABN MICa Combined,[6]; with Fusidic Acid,32 µg/mL
same,PABN MICa Combined,[6]; with Linezolid,16 µg/mL
same,PABN MICa Combined,[6]; with Novobiocin,16 µg/mL
same,PABN MICa Combined,[6]; with Oxacillin,16 µg/mL
same,PABN MICa Alone,"[7]; PAβN alone, one value per checkerboard, listed as PABN",64 µg/mL and 32 µg/mL
same,PABN MICa Combined,[7]; with Ciprofloxacin,2 µg/mL
same,PABN MICa Combined,[7]; with Erythromycin,8 µg/mL
same,PABN MICa Combined,[7]; with Fusidic Acid,16 µg/mL
same,PABN MICa Combined,[7]; with Linezolid,32 µg/mL
same,PABN MICa Combined,[7]; with Novobiocin,16 µg/mL
same,PABN MICa Combined,[7]; with Oxacillin,32 µg/mL
same,PABN MICa Combined,[8]; with Ciprofloxacin,256 µg/mL
same,PABN MICa Combined,[8]; with Erythromycin,64 µg/mL
same,PABN MICa Combined,[8]; with Fusidic Acid,32 µg/mL
same,PABN MICa Combined,[8]; with Linezolid,32 µg/mL
same,PABN MICa Combined,[8]; with Novobiocin,2 µg/mL
same,PABN MICa Combined,[8]; with Oxacillin,64 µg/mL
same,PABN MICa Combined,[9]; with Ciprofloxacin,8 µg/mL
same,PABN MICa Combined,[9]; with Erythromycin,16 µg/mL
same,PABN MICa Combined,[9]; with Fusidic Acid,8 µg/mL
same,PABN MICa Combined,[9]; with Linezolid,32 µg/mL
same,PABN MICa Combined,[9]; with Novobiocin,8 µg/mL
same,PABN MICa Combined,[9]; with Oxacillin,32 µg/mL

# Source: patent US20230407243A1, “GENETIC PLATFORM TO INVESTIGATE THE FUNCTIONS OF BACTERIAL DRUG EFFLUX PUMPS” (priority 2022, published 2023)
